Measured values reported in US8618082B2, “Lupeol anti-tumor agent and uses thereof” (Wisconsin Alumni Research Foundation, priority 2004, dated 2013).
“Also recorded” adds a separate entry of the source.

Legend:
[1] = system: catalytic (p110) and regulatory (p85) subunit of PI3K; assay: TPA-induced epidermal PI3K expression (western blot); format: in vivo, mouse
Procedure: FIG. 5. Inhibitory effect of Lupeol on TPA-induced activation of PI3K and phosphorylation of Akt in CD-1 mice: At different times after treatment, the animals were sacrificed, epidermal protein lysate was prepared, and PI3K and phosphorylated (Thr^308) Akt and total Akt protein expression were determined. The immunoblots shown here are representative of three independent experiments with similar results. The values above each lane indicate relative density of the band normalized to β-actin.
The animals were shaved on the dorsal side of the skin, divided into four groups and treated topically on the shaved area with either 0.4 ml vehicle (acetone), or TPA (3.2 nmol/0.4 ml acetone/animal, v/v), or Lupeol (1 or 2 mg/0.2 ml acetone/animal, w/v) followed 30 min later with TPA (3.2 nmol/0.2 ml acetone/animal). Animals were sacrificed at different times point i.e. 6, 12, 24 and 48 h post TPA treatment. The epidermis was separated from the whole skin and homogenized in 0.1 M Tris-HCl buffer (pH 7.2) using a Polytron tissue homogenizer (Brinkmann Instruments, Westbury, N.Y., USA) at 100,000×g supernatant, and microsomal fractions were prepared as described earlier (Katiyar and Mukhtar, 1997). The sample of 6 h treatment group was used to assess the ODC activity as this time point has previously been shown for optimal induction of the enzyme (Katiyar er al., 1996).
Epidermis from the whole skin was separated as described earlier (Katiyar et al., 1999) and was homogenized in ice-cold lysis buffer [50 mM Tris-HCl, 150 mM NaCl, 1 mM EGTA, 1 mM EDTA, 20 mM NaF, 100 mM Na3VO4, 0.5% NP-40, 1% Triton X-100, 1 mM PMSF (pH 7.4)] with freshly added protease inhibitor cocktail, Protease Inhibitor Cocktail Set III (Calbiochem, La Jolla, Calif., USA). The homogenate was then centrifuged at 14,000×g for 25 minutes at 4° C. and the supernatant (total cell lysate) was collected, aliquoted and stored at −80° C. For the preparation of nuclear lysate, 0.2 g of the epidermis was homogenized in 1 ml of ice-cold phosphate-buffered saline (pH 7.6) and centrifuged at 12,000×g for 5 min at 4° C. […] The protein content in the lysates was measured by DC BioRad assay (BioRad Laboratories, Hercules, Calif.) as per the manufacturer's protocol.
For western blot analysis, 40 μg of the protein was resolved over 8-12% polyacrylamide gels and transferred to a nitrocellulose membrane. […] This was followed by incubation with anti-mouse or anti-rabbit secondary antibody horse-radish peroxidase (Amersham Life Sciences, Inc., USA) for 1 h and then washed several times and detected by chemiluminescence ECL kit, (Amersham Life Sciences, Inc., USA) and autoradiography using XAR-5 film obtained from Eastman Kodak Co. (Rochester, N.Y., USA). […]

[2] = system: IKKα protein; assay: TPA-induced activation of IKKα (western blot); format: in vivo, mouse; details: highest dose of Lupeol, 12 h time point
Procedure: FIG. 6. Inhibitory effect of Lupeol on TPA-induced activation of IKKα, and phosphorylation and degradation of IκBα in CD-1 mice: At different times after treatment, the animals were sacrificed, epidermal cytosolic was prepared, and protein expression was determined. Equal loading was confirmed by stripping the immunoblot and reprobing it for β-actin. The immunoblots shown here are representative of three independent experiments with similar results. The values above each lane indicate relative density of the band normalized to β-actin.
The animals were shaved on the dorsal side of the skin, divided into four groups and treated topically on the shaved area with either 0.4 ml vehicle (acetone), or TPA (3.2 nmol/0.4 ml acetone/animal, v/v), or Lupeol (1 or 2 mg/0.2 ml acetone/animal, w/v) followed 30 min later with TPA (3.2 nmol/0.2 ml acetone/animal). […]
Epidermis from the whole skin was separated as described earlier (Katiyar et al., 1999) and was homogenized in ice-cold lysis buffer [50 mM Tris-HCl, 150 mM NaCl, 1 mM EGTA, 1 mM EDTA, 20 mM NaF, 100 mM Na3VO4, 0.5% NP-40, 1% Triton X-100, 1 mM PMSF (pH 7.4)] with freshly added protease inhibitor cocktail, Protease Inhibitor Cocktail Set III (Calbiochem, La Jolla, Calif., USA). […] The protein content in the lysates was measured by DC BioRad assay (BioRad Laboratories, Hercules, Calif.) as per the manufacturer's protocol. […]

[3] = system: androgen-sensitive prostatic cancer cells (LNCaP); assay: Viability of LNCaP cells, MTT assay; format: cell-based, human; details: for cell death of LNCaP cells: 48 hours
Procedure: FIG. 10 depicts effect of Lupeol on viability of androgen-sensitive prostatic cancer cells (LNCaP). Cells were treated with specified concentrations of Lupeol for 48 h, and cell viability was determined by MTT assay. The values are represented as the percent viable cells where vehicle-treated cells were regarded as 100% viable. Data represents mean value of percent viable cells±S.E of three independent experiments.

[4] = system: Fas receptor, FADD and other death receptors in LNCaP cells; assay: Death receptor mediated apoptotic pathway in LNCaP cells (western blot); format: cell-based, human
Procedure: FIG. 14 depicts effect of Lupeol treatment on death receptor mediated apoptotic pathway in LNCaP cells: Cells were treated with vehicle (DMSO+alcohol) only or specified concentrations of Lupeol for 48 h, harvested and total cell lysates were prepared. The expression of death receptors including Fas and death adaptor proteins including FADD were determined by western blot analysis. Equal loading was confirmed by stripping immunoblots and reprobing them for β-actin. The immunoblots shown here are representative of three independent experiments with similar results.

## C=C(C)[C@@H]1CC[C@]2(C)CC[C@]3(C)[C@H](CC[C@@H]4[C@@]5(C)CC[C@H](O)C(C)(C)[C@@H]5CC[C@]43C)[C@@H]12 [Lupeol, Lup-20(29)-en-3β-ol]
[1]; 2 mg Lupeol prior to TPA
  expression of p110 and p85: recovery of the expression of both p110 and p85 almost to their basal levels
[1]; topical Lupeol 30 min prior to TPA
  TPA-induced increased expression of catalytic and regulatory subunits of PI3K: significant inhibition
[2]
  inhibition in TPA induced activation of IKKα protein: ~95%
[3]; 40-60 μM Lupeol
  cell death of LNCaP cells: 75-90%
[3]; Lupeol 5-30 μM, 48 and 72 h, time and dose dependent
  cell viability of LNCaP cells: significant inhibition of cell viability
[3]; Lupeol up to 30 μM
  cell death of LNCaP cells: 70%
[4]
  expression of cell death-inducing receptor ligands FAS-L, APO-3L and TRAIL: no significant change
  expression/activation of other death receptors (TRADD, TNFR-1, APO-3, DR-4/5): no change in the protein expression; also recorded: No other death receptor such as TNFR1, DR4/5 were activated
[4]; 48 h
  expression of FADD protein: increase in the expression of FADD protein; also recorded: induces the expression
  expression of FAS receptor protein: significant increase; also recorded: induces the expression
